According to US20250072422A1, “ARYLCYCLOHEXANEDIONE DERIVATIVE OR SALT THEREOF, PEST CONTROL AGENT CONTAINING SAID COMPOUND, AND METHOD FOR USING SAME” (ADEKA Corporation, priority 2021, published 2025):

These compounds were tested on Frankliniella occidentalis (assay: Insecticidal test against Frankliniella occidentalis). Details: 500 ppm drug solution sprayed on hatched larvae on Phaseolus vulgaris leaf pieces, four days after treatment.
From the text: Female adults of Frankliniella occidentalis were inoculated onto Phaseolus vulgaris leaf pieces, and after allowing them to lay eggs for one day, the female adults were removed. […] Four days after the treatment, the number of surviving larvae of this species was examined. […] In duplicate.

| Compound | corrected mortality, rating of assessment |
| --- | --- |
| CC1C(=O)C(C(=O)Nc2ccc(C(F)(F)F)cc2)=C(O)CC1c1ccc(C(F)(F)F)cc1 (stereo not drawn) [1-2] | D or higher |
| CC1(C)C(=O)C(C(=O)Nc2ccc(F)c(F)c2)=C(O)CC1c1ccc(C(F)(F)F)cc1 (stereo not drawn) [1-10] | D or higher |

What follows are compounds tested on Plutella xylostella (assay: Insecticidal test against Plutella xylostella). Details: 500 ppm drug solution, Chinese cabbage seedlings with eggs immersed about 30 sec, six days after immersion, 25° C.
From the text: Six days after the immersion in the drug solution, the number of surviving insects was examined. […] In triplicate using 10 per plot.

| Compound | corrected mortality, rating of assessment |
| --- | --- |
| CC1C(=O)C(C(=O)Nc2ccc(F)cc2)=C(O)CC1(C)c1ccc(C(F)(F)F)cc1 (stereo not drawn) [1-3] | D or higher |
| C#CCC1C(=O)C(C(=O)Nc2ccc(F)cc2)=C(O)CC1c1ccc(C(F)(F)F)cc1 (stereo not drawn) [1-7, N-(4-fluorophenyl)-5-hydroxy-3-oxo-2-(prop-2-yn-1-yl)-4′-(trifluoromethyl)-1,2,3,6-tetrahydro-[1,1′-biphenyl]-4-carboxamide] | D or higher |
| C#CCC1C(=O)C(C(=S)Nc2ccc(F)cc2)=C(O)CC1c1ccc(C(F)(F)F)cc1 (stereo not drawn) [1-18] | D or higher |
| CC1(C)C(=O)C(C(=S)Nc2ccc(F)cc2)=C(O)CC1c1ccc(C(F)(F)F)cc1 (stereo not drawn) [1-20] | D or higher |
| CC1(C)C(=O)C(C(=S)Nc2ccc(OC(F)(F)F)cc2)=C(O)CC1c1ccc(C(F)(F)F)cc1 (stereo not drawn) [1-22] | D or higher |
| O=C(Nc1ccc(F)cc1)C1=C(O)CC(c2ccc(C(F)(F)F)cc2)C2(CCCC2)C1=O (stereo not drawn) [1-28] | D or higher |
| O=C(Nc1ccc(Oc2ccccc2)cc1)C1=C(O)CC(c2ccc(C(F)(F)F)cc2)C2(CCCCC2)C1=O (stereo not drawn) [1-38] | D or higher |
| O=C(Nc1ccc(F)cc1)C1=C(O)CC(c2ccc(C(F)(F)F)cc2)C2(CCOCC2)C1=O (stereo not drawn) [1-45] | D or higher |
| O=C1C(C(=S)Nc2ccc(F)cc2)=C(O)CC(c2ccc(C(F)(F)F)cc2)C12CCCC2 (stereo not drawn) [1-48] | D or higher |
| O=C(Nc1ccc([N+](=O)[O-])cc1)C1=C(O)CC(c2ccc(C(F)(F)F)cc2)C2(CCCCC2)C1=O (stereo not drawn) [1-118] | D or higher |
| O=C(Nc1ccccc1-c1ccccc1)C1=C(O)CC(c2ccc(C(F)(F)F)cc2)C2(CCCCC2)C1=O (stereo not drawn) [1-119] | D or higher |
| O=C(Nc1ccc(SC(F)(F)F)cc1)C1=C(O)CC(c2ccc(C(F)(F)F)cc2)C2(CCCCC2)C1=O (stereo not drawn) [1-120] | D or higher |
| O=C(Nc1ccc(OC(F)(F)F)cc1)C1=C(O)CC(c2ccc(C(F)(F)F)cc2)C2(CCCCC2)C1=O (stereo not drawn) [1-122] | D or higher |
| Cl.O=C(Nc1ccc(F)cc1)C1=C(O)CC(c2ccc(C(F)(F)F)cc2)C2(CCNCC2)C1=O (stereo not drawn) [1-136] | D or higher |
| CC1(C)C(=O)C(C(=O)Nc2ccc(F)cn2)=C(O)CC1c1ccc(Br)cn1 (stereo not drawn) [1-142] | D or higher |
| CC1(C)C(=O)C(C(=O)Nc2ccc(F)nc2)=C(O)CC1c1ccc(Br)cn1 (stereo not drawn) [1-143] | D or higher |
| O=C1CC2c3cc(C(F)(F)F)ccc3CC2C(O)=C1C(=O)Nc1ccc(F)cc1 (stereo not drawn) [2-1] | D or higher |
| O=C1CC2c3ccc(C(F)(F)F)cc3CCC2C(O)=C1C(=O)Nc1ccc(F)cc1 (stereo not drawn) [2-2] | D or higher |
| CC1C(=O)C(C(=O)Nc2ccc(F)cc2)=C(O)C2CCc3cc(C(F)(F)F)ccc3C12 (stereo not drawn) [2-4] | D or higher |
| CC1C(=O)C(C(=S)Nc2ccc(F)cc2)=C(O)C2CCc3cc(C(F)(F)F)ccc3C12 (stereo not drawn) [2-9] | D or higher |

The compounds below were run on Dirofilaria immitis (assay: Influence evaluation test on the growth of Dirofilaria immitis). Details: 168 h, read-out: development inhibition rate from the L3 stage larva to the L4-stage larva.
Assay type: cell-based

| Compound | inhibition at 10 µM [%] |
| --- | --- |
| C#CCC1C(=O)C(C(=O)Nc2ccc(F)cc2)=C(O)CC1c1ccc(C(F)(F)F)cc1 (stereo not drawn) [1-7, N-(4-fluorophenyl)-5-hydroxy-3-oxo-2-(prop-2-yn-1-yl)-4′-(trifluoromethyl)-1,2,3,6-tetrahydro-[1,1′-biphenyl]-4-carboxamide] | ≥ 50 |

Each compound was assayed on Laodelphax striatellus (assay: Insecticidal test against Laodelphax striatellus). Details: 500 ppm drug solution, rice seedlings immersed 30 seconds, three-instar insects, eight days after inoculation.

| Compound | corrected mortality, rating of assessment |
| --- | --- |
| O=C(Nc1ccc(F)cc1)C1=C(O)CC(c2ccc(C(F)(F)F)cc2)C2(CCCC2)C1=O (stereo not drawn) [1-28] | D or higher |
